For one assay, the target named is Vasopressin V1a receptor (Homo sapiens, UniProt P37288).
The target of assay [1] is T1, Muscarinic acetylcholine receptor M2 (Homo sapiens, UniProt P08172).
T1 sequence (P08172 whole entry): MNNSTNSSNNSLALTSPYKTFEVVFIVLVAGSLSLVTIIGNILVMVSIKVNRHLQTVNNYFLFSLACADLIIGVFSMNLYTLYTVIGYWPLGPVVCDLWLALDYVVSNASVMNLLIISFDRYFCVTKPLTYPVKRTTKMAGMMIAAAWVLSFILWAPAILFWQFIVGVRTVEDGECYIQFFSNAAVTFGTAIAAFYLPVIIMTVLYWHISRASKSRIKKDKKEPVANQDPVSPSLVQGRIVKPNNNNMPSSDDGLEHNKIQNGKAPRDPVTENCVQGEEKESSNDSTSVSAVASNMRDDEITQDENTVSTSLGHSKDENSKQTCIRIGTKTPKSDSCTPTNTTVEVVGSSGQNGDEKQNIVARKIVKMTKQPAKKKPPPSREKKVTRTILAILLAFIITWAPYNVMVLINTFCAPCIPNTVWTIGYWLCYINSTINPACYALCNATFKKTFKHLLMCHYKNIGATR
It counts as functional, cell-based.

For assay [2], the target named is T2, Alpha-1A adrenergic receptor (Homo sapiens, UniProt P35348).
T2 sequence (P35348 whole entry): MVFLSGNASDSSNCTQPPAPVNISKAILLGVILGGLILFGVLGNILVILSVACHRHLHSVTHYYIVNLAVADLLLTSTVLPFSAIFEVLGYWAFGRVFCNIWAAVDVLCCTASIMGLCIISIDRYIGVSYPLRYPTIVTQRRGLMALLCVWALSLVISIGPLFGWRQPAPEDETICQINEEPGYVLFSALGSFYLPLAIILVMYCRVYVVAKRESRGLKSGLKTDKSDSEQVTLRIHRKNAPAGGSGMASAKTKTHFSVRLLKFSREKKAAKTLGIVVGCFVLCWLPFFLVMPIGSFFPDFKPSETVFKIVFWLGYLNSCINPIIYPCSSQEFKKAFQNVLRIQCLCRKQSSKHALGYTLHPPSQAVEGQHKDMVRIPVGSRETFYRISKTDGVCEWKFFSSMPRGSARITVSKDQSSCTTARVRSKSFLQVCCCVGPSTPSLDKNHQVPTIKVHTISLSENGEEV
It counts as functional, cell-based.

The target of another assay is Adenosine receptor A2a (Homo sapiens, UniProt P29274).
For another assay, the target named is D(1A) dopamine receptor (Homo sapiens, UniProt P21728). It counts as functional, cell-based.
In assay [3] the target is 5-hydroxytryptamine receptor 2B (Homo sapiens, UniProt P41595). It counts as functional, cell-based.
For the next assay, the target named is T3, Adenosine receptor A3 (Homo sapiens, UniProt P0DMS8).
T3 sequence (P0DMS8 whole entry): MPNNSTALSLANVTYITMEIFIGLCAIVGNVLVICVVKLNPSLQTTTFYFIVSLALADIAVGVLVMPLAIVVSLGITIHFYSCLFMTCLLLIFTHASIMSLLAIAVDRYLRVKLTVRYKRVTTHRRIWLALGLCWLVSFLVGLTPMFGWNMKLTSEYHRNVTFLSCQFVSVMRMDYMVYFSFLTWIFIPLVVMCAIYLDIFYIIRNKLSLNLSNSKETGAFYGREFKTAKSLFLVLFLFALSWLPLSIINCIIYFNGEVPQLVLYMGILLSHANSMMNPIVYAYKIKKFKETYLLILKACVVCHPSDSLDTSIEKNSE

Assay [4] has as its target T4, Gastrin/cholecystokinin type B receptor (Homo sapiens, UniProt P32239).
T4 sequence (P32239 whole entry): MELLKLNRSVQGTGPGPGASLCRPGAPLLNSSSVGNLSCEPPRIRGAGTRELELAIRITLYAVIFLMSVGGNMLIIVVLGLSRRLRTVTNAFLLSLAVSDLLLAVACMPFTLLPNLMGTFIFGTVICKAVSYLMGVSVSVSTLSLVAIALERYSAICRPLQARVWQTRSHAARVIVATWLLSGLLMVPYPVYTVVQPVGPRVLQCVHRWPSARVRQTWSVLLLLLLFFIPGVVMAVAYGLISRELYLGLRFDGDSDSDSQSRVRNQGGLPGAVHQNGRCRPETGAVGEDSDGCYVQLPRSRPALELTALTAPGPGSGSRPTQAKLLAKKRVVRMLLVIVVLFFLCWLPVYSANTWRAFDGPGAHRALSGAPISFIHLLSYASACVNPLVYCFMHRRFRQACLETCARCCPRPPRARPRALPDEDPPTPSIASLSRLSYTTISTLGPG

In assay [5] the target is Kappa-type opioid receptor (Homo sapiens, UniProt P41145).
In a further assay the target is T5, B2 bradykinin receptor (Homo sapiens, UniProt P30411).
T5 sequence (P30411 whole entry): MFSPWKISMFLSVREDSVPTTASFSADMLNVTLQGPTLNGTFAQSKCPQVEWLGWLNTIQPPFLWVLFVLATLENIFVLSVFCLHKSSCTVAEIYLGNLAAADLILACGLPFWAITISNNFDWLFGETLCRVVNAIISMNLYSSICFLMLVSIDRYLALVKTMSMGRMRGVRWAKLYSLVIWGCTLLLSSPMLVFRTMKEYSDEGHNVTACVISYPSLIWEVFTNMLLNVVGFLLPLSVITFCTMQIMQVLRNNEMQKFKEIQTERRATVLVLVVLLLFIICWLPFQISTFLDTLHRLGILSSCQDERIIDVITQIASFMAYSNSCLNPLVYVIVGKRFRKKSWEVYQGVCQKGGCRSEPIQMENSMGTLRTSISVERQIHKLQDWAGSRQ

The target of another assay is T6, Thromboxane A2 receptor (Homo sapiens, UniProt P21731).
T6 sequence (P21731 whole entry): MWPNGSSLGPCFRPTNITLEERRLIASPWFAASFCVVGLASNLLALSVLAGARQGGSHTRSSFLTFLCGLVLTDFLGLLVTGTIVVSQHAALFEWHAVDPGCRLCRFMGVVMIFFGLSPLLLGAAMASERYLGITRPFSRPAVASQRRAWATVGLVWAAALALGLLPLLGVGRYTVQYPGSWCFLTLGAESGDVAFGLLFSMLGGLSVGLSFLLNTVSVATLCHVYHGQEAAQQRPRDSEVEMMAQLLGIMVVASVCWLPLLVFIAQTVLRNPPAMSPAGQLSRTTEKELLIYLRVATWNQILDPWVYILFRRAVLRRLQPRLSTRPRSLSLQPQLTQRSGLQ

Assay [6] concerns the target Beta-2 adrenergic receptor (Homo sapiens, UniProt P07550).

Structures are written as SMILES.

The term AC50 denotes the concentration giving half of the maximal activity seen. A higher AC50 goes with activity only at high concentration.
Further: assay procedure not described here.

Chain of D(1A) dopamine receptor (P21728 whole entry): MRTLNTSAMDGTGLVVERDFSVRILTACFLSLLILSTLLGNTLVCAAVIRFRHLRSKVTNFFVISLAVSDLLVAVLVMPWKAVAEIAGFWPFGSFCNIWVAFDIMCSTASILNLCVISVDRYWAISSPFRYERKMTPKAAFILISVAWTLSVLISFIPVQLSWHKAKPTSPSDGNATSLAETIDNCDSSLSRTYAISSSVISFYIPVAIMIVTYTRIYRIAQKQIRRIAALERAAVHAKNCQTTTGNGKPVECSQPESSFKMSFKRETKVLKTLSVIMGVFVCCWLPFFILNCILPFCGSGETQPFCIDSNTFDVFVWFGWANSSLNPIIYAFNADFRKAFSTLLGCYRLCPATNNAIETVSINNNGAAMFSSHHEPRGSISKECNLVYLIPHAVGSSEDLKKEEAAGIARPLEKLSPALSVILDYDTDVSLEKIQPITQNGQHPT
Chain of Kappa-type opioid receptor (P41145 whole entry): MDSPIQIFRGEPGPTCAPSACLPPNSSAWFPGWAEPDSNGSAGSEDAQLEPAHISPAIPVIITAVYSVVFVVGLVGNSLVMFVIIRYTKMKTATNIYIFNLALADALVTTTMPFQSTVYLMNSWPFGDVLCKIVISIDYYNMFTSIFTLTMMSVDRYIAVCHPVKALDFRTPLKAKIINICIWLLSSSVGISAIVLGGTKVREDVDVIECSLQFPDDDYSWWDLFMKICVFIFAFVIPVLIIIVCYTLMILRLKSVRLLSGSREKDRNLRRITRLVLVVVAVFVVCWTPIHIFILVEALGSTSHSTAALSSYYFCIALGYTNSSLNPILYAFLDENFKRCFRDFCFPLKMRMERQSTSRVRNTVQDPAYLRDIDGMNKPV
Chain of Adenosine receptor A2a (P29274 whole entry): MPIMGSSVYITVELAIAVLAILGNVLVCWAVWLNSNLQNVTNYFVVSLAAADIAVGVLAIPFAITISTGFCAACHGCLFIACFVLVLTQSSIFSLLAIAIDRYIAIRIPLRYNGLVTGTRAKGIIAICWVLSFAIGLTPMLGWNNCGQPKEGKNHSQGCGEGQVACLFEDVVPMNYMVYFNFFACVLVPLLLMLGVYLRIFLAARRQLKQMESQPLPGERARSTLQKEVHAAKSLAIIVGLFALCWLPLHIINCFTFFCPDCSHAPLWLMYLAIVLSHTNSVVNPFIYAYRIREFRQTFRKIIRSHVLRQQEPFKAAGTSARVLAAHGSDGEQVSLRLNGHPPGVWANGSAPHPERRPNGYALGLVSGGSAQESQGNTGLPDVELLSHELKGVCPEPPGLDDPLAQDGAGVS
Chain of Beta-2 adrenergic receptor (P07550 whole entry): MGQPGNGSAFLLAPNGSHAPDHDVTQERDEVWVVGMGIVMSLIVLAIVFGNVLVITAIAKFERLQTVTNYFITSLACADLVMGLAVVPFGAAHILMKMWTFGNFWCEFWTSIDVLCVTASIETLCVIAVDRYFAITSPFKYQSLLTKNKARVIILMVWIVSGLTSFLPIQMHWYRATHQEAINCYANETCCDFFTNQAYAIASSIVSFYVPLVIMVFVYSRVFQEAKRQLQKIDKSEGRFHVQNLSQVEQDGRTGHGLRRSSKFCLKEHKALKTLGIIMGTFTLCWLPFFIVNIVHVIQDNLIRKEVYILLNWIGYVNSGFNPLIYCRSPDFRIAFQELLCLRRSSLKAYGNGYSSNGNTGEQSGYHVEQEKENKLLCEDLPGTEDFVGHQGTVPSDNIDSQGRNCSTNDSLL
Chain of 5-hydroxytryptamine receptor 2B (P41595 whole entry): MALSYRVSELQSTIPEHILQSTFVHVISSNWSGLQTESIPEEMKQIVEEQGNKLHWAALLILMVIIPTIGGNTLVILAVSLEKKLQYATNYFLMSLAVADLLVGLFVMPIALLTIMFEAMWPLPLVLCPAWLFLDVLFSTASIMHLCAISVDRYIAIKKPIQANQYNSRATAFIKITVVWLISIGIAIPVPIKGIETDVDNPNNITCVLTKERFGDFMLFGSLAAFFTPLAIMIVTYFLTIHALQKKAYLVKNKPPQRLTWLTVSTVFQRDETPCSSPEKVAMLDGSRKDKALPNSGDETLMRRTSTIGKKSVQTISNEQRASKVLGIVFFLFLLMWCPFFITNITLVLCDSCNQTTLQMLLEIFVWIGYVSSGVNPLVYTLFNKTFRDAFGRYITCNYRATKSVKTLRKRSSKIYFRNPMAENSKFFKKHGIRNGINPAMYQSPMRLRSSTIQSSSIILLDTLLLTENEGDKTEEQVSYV
Chain of Vasopressin V1a receptor (P37288 whole entry): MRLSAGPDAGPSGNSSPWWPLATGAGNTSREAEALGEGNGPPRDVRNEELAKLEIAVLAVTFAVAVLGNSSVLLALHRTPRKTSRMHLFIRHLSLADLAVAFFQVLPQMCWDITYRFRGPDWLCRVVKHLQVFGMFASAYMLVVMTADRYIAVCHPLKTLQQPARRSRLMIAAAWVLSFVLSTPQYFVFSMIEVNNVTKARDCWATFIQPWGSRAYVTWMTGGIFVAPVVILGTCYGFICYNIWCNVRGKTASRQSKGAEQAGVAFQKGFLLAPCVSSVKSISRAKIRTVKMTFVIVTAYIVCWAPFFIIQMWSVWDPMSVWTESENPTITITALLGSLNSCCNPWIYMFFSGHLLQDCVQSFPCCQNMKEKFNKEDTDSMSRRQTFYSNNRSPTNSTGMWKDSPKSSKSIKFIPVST

`CCOc1cc([C@@H](CS(C)(=O)=O)N2C(=O)c3cccc(NC(C)=O)c3C2=O)ccc1OC`: the AC50 at Vasopressin V1a receptor was more than 30 µM; in assay [1], more than 30 µM; in assay [2] it was more than 30 µM; on Adenosine receptor A2a, more than 30 µM; at D(1A) dopamine receptor, more than 30 µM; in assay [3] it was 4.5 µM. On Adenosine receptor A3, this compound yielded an AC50 of more than 30 µM.

As to `CC1(C)S[C@@H]2[C@H](NC(=O)C(C(=O)O)c3ccccc3)C(=O)N2[C@H]1C(=O)O` (stereo partly specified) [CARBENICILLIN], the AC50 (on Vasopressin V1a receptor; in [1]; in assay [2]; on Adenosine receptor A2a; in [4]; at D(1A) dopamine receptor) was more than 30 µM each time. Besides, the concentration at half-maximal activity (AC50) (in [5]; at B2 bradykinin receptor; in assay [3]; on Adenosine receptor A3) was more than 30 µM each time.

Turning to `Cc1nnc(SCC2=C(C(=O)O)N3C(=O)[C@@H](NC(=O)Cn4cnnn4)[C@H]3SC2)s1` [CEFAZOLIN], the AC50 is more than 300 µM at Vasopressin V1a receptor; more than 300 µM in assay [1]; more than 300 µM in assay [2]; more than 300 µM at Adenosine receptor A2a; more than 30 µM in assay [4]; more than 300 µM at D(1A) dopamine receptor. Further, the AC50 in assay [5] is more than 30 µM; on B2 bradykinin receptor, more than 30 µM; in assay [3] it was more than 300 µM; on Adenosine receptor A3, more than 300 µM.

As for `CC(C)NC(=N)NC(=N)Nc1ccc(Cl)c(Cl)c1` [CHLORPROGUANIL], the AC50 in assay [2] is more than 30 µM; on D(1A) dopamine receptor, more than 30 µM; in assay [5] it was more than 30 µM; in assay [3], 12.2 µM.

As to `C[N+](C)(C)CCOP(=O)(O)OP(=O)([O-])OC[C@H]1O[C@@H](n2ccc(N)nc2=O)[C@H](O)[C@@H]1O` [CITICOLINE], the AC50 (in assay [1]; in assay [2]; at D(1A) dopamine receptor; in assay [5]; in assay [3]) was more than 30 µM throughout.

Regarding `Clc1ccc(Cn2c(CN3CCCC3)nc3ccccc32)cc1` [CLEMIZOLE], the AC50 on Vasopressin V1a receptor was more than 30 µM; in [1], more than 10 µM; in assay [2] it was more than 30 µM; at Adenosine receptor A2a it was more than 30 µM; on D(1A) dopamine receptor, more than 30 µM; on Adenosine receptor A3, more than 30 µM.

Take `CCC(=O)O[C@]1(C(=O)CCl)[C@@H](C)C[C@H]2[C@@H]3CCC4=CC(=O)C=C[C@]4(C)[C@@]3(F)[C@@H](O)C[C@@]21C` [CLOBETASOL PROPIONATE]: the AC50 (in [1]; in [2]; at Adenosine receptor A2a; in assay [4]; at D(1A) dopamine receptor; in assay [5]) was more than 30 µM throughout. Besides, the AC50 (on B2 bradykinin receptor; in [3]; on Adenosine receptor A3) was more than 30 µM each time.

With `CC(C)Cc1ccc([C@H](C)C(=O)O)cc1` [DEXIBUPROFEN], the AC50 (on Vasopressin V1a receptor; in assay [1]; in assay [2]; at Adenosine receptor A2a; at D(1A) dopamine receptor; in assay [3]) was more than 30 µM throughout. The compound further registered an AC50 on Adenosine receptor A3 of more than 30 µM.

As for `CNC[C@H](O)c1ccc(O)c(O)c1` [EPINEPHRINE], the half-maximal activity concentration (AC50) in assay [1] is more than 30 µM; at Adenosine receptor A2a it was more than 30 µM; in [3], more than 30 µM; on Adenosine receptor A3 it was 18 µM.

`Cc1onc(-c2c(F)cccc2Cl)c1C(=O)N[C@@H]1C(=O)N2[C@@H]1SC(C)(C)[C@@H]2C(=O)O` [FLOXACILLIN]: the concentration at half-maximal activity (AC50) (at Vasopressin V1a receptor; in assay [1]; in assay [2]; on Adenosine receptor A2a; on D(1A) dopamine receptor; in assay [3]) was more than 30 µM each time. The compound further gave an AC50 at Adenosine receptor A3 of more than 30 µM.

For `CNC(=C[N+](=O)[O-])NCCSCc1csc(CN(C)C)n1` [NIZATIDINE], the AC50 (in assay [1]; on Adenosine receptor A2a; on D(1A) dopamine receptor; in [5]; at B2 bradykinin receptor; on Thromboxane A2 receptor) was more than 10 µM each time. The AC50 (in assay [3]; in assay [6]; at Adenosine receptor A3) was more than 10 µM each time.

Take `CCCc1cc(=O)[nH]c(=S)[nH]1` [PROPYLTHIOURACIL]: the AC50 (on Vasopressin V1a receptor; in [1]; on Adenosine receptor A2a; on D(1A) dopamine receptor; in [5]; on B2 bradykinin receptor) was more than 10 µM in each case. Also, the concentration at half-maximal activity (AC50) (on Thromboxane A2 receptor; in [3]; in assay [6]; on Adenosine receptor A3) was more than 10 µM each time.

Consider `S=P(N1CC1)(N1CC1)N1CC1` [THIOTEPA], for which the AC50 on Vasopressin V1a receptor was more than 30 µM; in [2], more than 30 µM; at Adenosine receptor A2a, more than 30 µM; at D(1A) dopamine receptor, more than 30 µM; in assay [3], 1.6 µM; at Adenosine receptor A3 it was more than 30 µM.

Take `CC(C)C[C@H](NC(=O)[C@@H](O)[C@H](N)Cc1ccccc1)C(=O)O` [UBENIMEX]: the AC50 (in [1]; in [2]; at Adenosine receptor A2a; on D(1A) dopamine receptor; in [5]; at Thromboxane A2 receptor) was more than 30 µM throughout. For the same compound, the AC50 (in assay [3]; on Adenosine receptor A3) was more than 30 µM throughout.

`COc1cc(C(=O)NS(=O)(=O)c2ccccc2C)ccc1Cc1cn(C)c2ccc(NC(=O)OC3CCCC3)cc12` [ZAFIRLUKAST]: the AC50 at Vasopressin V1a receptor is more than 10 µM; in assay [2] it was more than 30 µM; on Adenosine receptor A2a, more than 30 µM; at D(1A) dopamine receptor, more than 10 µM; in assay [5], 6.32 µM; at B2 bradykinin receptor, more than 10 µM. Also, the values for the AC50 (at Thromboxane A2 receptor; in assay [6]; on Adenosine receptor A3) were more than 10 µM, more than 10 µM and 11.4 µM, respectively.

(Values after ChEMBL document CHEMBL5291721, “A preclinical secondary pharmacology resource illuminates target-adverse drug reaction associations of marketed drugs” (Nat Commun, 2023).)
